Where “and” joins values, the source holds several entries; their conditions need not be identical. Equal values may be shown once.
System: CMV
Assay: Study HDP-CDV-201: prevention or control of CMV infection in R+ HSCT recipients (efficacy)
Format: in vivo, human (adult allogeneic HSCT recipients)
Procedure: The clinical study of the current invention (HDP-CDV-201) was a 9-11 week randomized, placebo-controlled, double-blind, dose-escalation study (40 mg weekly [QW], 100 mg QW, 200 mg QW, 200 mg twice-weekly [BIW], and 100 mg BIW) of HDP-CDV for the prevention of CMV infection post-HCT. Treatment was initiated at the time of engraftment and continued until Week 13 post-HCT. HDP-CDV, at various doses, was active and well tolerated in the prevention CMV infection or disease.
Clinical Studies of HDP-CDV were performed and described in detail in the following Examples. For example, HDP-CDV-201 is a placebo-controlled, dose-escalating trial in HSCT CMV (R+) recipients, evaluating the ability of HDP-CDV to prevent or control CMV infection was carried out. Five cohorts were established in which participants or subjects received either placebo or the HDP-CDV orally, in doses ranging from 40 mg weekly (QW) to 200 mg twice weekly (BIW). Subjects who were post-HSCT were enrolled at the time of engraftment and randomized to HDP-CDV or placebo (3 to 1 ratio) and received blinded therapy until approximately 100 day post-transplantation. HDP-CDV doses were 40 mg QW, 100 mg QW, 200 mg QW, 200 mg BIW and 100 mg BIW. Escalation to the next dose was decided by the data monitoring committee after review of the safety data from the previous Cohort. Subjects who developed CMV disease or CMV infection requiring pre-emptive therapy with local standard of care were discontinued from blinded therapy and followed for 4 weeks. Subjects who completed treatment with blinded therapy were followed for 8 weeks post-therapy.
The primary endpoint was defined as the incidence of CMV disease at any time during treatment or CMV DNAemia≧200 copies/mL at the end of treatment. All subjects who received at least one dose of drug/placebo and had at least one efficacy evaluation post baseline were included in the primary analysis, regardless of their CMV DNAemia status (negative or positive) at baseline (mITT population). Results for the pooled HDP-CDV Cohorts and for each Cohort separately were analyzed versus that for pooled placebo.
The primary efficacy measure for this study was treatment failure, defined as the occurrence of CMV infection, defined as CMV DNAemia>200 copies/mL at the End of Treatment or diagnosis of CMV disease at any time during the treatment period. For the analysis, the following definitions apply:
For subjects who completed the treatment phase of the study, the End of Treatment was defined as the latest assessment from date of the last dose of study drug and up to 7 days for QW dosing, or the date of the last dose of study drug and up to 4 days for BIW dosing. For subjects who discontinued during the treatment phase of the study, the End of Treatment was defined as the date of the last dose of study drug.
The time to event was defined as the period between FDD and date of first occurrence of the event of interest (inclusive). The events included onset of CMV DNAemia, onset of CMV disease, and discontinuation because of excluded anti-CMV medications. Time to event/onset was derived as (the event/onset date—FDD)+1.
As detailed in the Statistical Analysis Plan, a modified CMV stratum was defined prior to conducting the statistical analysis based upon polymerase chain reaction (PCR) results from the central laboratory. If any positive CMV DNA value in plasma was collected before the first dose of study drug (including Screening, Pre-dose, (combined Screening/Pre-dose), CMV for stratification, and FDD), then the subject was placed into the modified CMV positive (≧100 copies/mL) stratum, otherwise the subject was in the modified CMV negative stratum. […]

[1] = 200 mg QW, modified CMV negative stratum
[2] = 200 mg QW, whole study period, CMV DNA negative at baseline
[3] = All HDP-CDV, CMV modified strata: negative
[4] = All HDP-CDV, CMV modified strata: positive

Compound: CCCCCCCCCCCCCCCCOCCCOP(=O)(O)COC(CO)Cn1ccc(N)nc1=O (stereo not drawn) [HDP-CDV]
- Subjects Receiving Antiviral Therapy and/or had CMV disease (200 mg QW, mITT): 7 (17.9%) subjects (%)
- Subjects without a CMV event (200 mg QW, mITT): 32 (82.1%) subjects (%)
- Time to Antiviral Therapy, Median (200 mg QW, mITT): 40.0 days
- Rate of CMV Disease or End of Treatment CMV Infection (≧200 copies/ml) (200 mg QW, mITT, missing=infection): 31% and 30.8%
- Rate of CMV DNAemia ≧1000 copies/mL during the treatment period (200 mg QW, mITT, post hoc): 18% and 17.9%
- Time to Antiviral Therapy, Mean (200 mg QW, mITT, censored values not included): 38.1 days
- % CMV Event Rate: Incidence of CMV DNAemia >100 copies/mL During Treatment (Fisher analysis, ref 14.3.3.2.1) [1]: 7 (24.1%) subjects (%)
- % CMV Event Rate: Incidence of CMV DNAemia ≧1,000 copies/mL at any time during treatment [1]: 2 (6.9%) subjects (%)
- Combined CMV event rate (CMV disease, viremia requiring treatment, viremia ≧1000 copies/mL) [1]: 13.8%
- Subjects Who Had CMV-related Event (CMV disease, CMV DNAemia ≧1,000 c/mL or initiation of anti-CMV treatment) [1]: 4 (13.8%) subjects (%)
- Subjects without a CMV-related event [1]: 25 (86.2%) subjects (%)
- Developed CMV DNAemia (≧100 copies/mL) during the treatment period (200 mg QW, plasma CMV DNA negative at baseline, mITT): 7 (23.3%) N(%)
- Time to CMV DNAemia (≧100 copies/mL), Median (200 mg QW, treatment period, CMV DNA negative at baseline): 15.0 days
- Time to CMV DNAemia (≧100 copies/mL), Mean (200 mg QW, treatment period, CMV DNA negative at baseline, censored values not included): 22.6 days
- Number of Subjects who had CMV DNAemia (≧100 copies/mL) by the end of study [2]: 11
- Time to CMV DNAemia (≧100 copies/mL), Mean [2]: 36.3 days
- Time to CMV DNAemia (≧100 copies/mL), Median [2]: 36.0 days
- subjects with emergence of viremia between end of treatment and end of treatment-free follow-up (8 weeks follow-up): less than 10%
- % CMV Event Rate, primary: CMV DNAemia >200 copies/mL at end of treatment OR CMV disease during treatment (All HDP-CDV (N = 133), CMV modified strata: negative): 21 (15.8%) subjects (%)
- % CMV Event Rate, primary: CMV DNAemia >200 copies/mL at end of treatment OR CMV disease during treatment (All HDP-CDV (N = 162), aGVHD strata: negative): 41 (25.3%) subjects (%)
- % CMV Event Rate, primary: CMV DNAemia >200 copies/mL at end of treatment OR CMV disease during treatment (All HDP-CDV (N = 171), mITT): 43 (25.1%) subjects (%)
- Difference (HDP-CDV minus placebo) in infection rate [3]: −14.0%
- Difference (HDP-CDV minus placebo) in rate of CMV DNAemia ≧1,000 copies/ml [3]: −25.9%
- Rate of CMV DNAemia ≧1,000 copies/ml during the treatment period [3]: 6.0%
- Rate of CMV Disease or End of Treatment CMV Infection [3]: 15.8%
- Difference (HDP-CDV minus placebo) in rate of CMV DNAemia ≧1,000 copies/mL [4]: −28.1%
- Rate of CMV DNAemia ≧1,000 copies/mL during the treatment period [4]: 55.3%
- Rate of CMV Disease or End of Treatment CMV Infection (All HDP-CDV, aGVHD randomization strata: negative): 25.3%
- Difference (HDP-CDV minus placebo) in infection rate (All HDP-CDV, aGVHD strata: negative): −6.8%
- Difference (HDP-CDV minus placebo) in rate of CMV DNAemia ≧1000 copies/mL (All HDP-CDV, mITT): −25.4%
- Difference (HDP-CDV minus placebo) in rate of CMV disease or end of treatment CMV infection (All HDP-CDV, mITT): −12.1%
- Rate of CMV DNAemia ≧1000 copies/mL during the treatment period (All HDP-CDV, mITT, post hoc): 17.0%
- % CMV Event Rate: Incidence of CMV DNAemia ≧1,000 copies/mL at any time during treatment (All HDP-CDV, modified CMV negative stratum): 8 (6.0%) subjects (%)
- CMV disease/infection rate (primary endpoint) (All cohorts combined, aGVHD positive strata (2 of 9)): 22.2%
- CMV DNAemia rate over whole study period (Cohorts 100 mg QW, 200 mg QW and 100 mg BIW): ~35%
- % CMV Event Rate, primary: CMV DNAemia >200 copies/mL at end of treatment OR CMV disease during treatment (Combined 100 mg QW, 200 mg BIW, 100 mg BIW (N = 86), CMV modified strata: negative): 8 (9.3%) subjects (%)
- Rate of CMV DNAemia ≧1000 copies/mL during the treatment period (Exploratory analysis, cohorts that met endpoint (200 mg QW, 200 mg BIW, 100 mg BIW combined), mITT): 11% and 10.9%
- Difference (HDP-CDV minus placebo) in rate of CMV DNAemia ≧1000 copies/mL (Exploratory analysis, cohorts that met endpoint, mITT): −23.2%
- Incidence of composite endpoint (initiation of anti-CMV therapy or CMV disease or CMV DNAemia >1,000 copies/mL) (Higher doses (≧200 mg QW)): less than 15%
- Incidence of CMV disease or initiation of anti-CMV preemptive therapy (Pooled HDP-CDV, mITT): 22% and 21.6%
- overall rates of CMV DNAemia detectable at any time during treatment (across doses of 100 mg QW and higher): 17.4 to 23.8%
- subjects who developed CMV disease (doses of 100 mg QW or higher (4/146)): 2.7%
- subjects who developed CMV disease (doses of 200 mg per week or higher (1/119)): 0.8%
- CMV disease/infection rate (primary endpoint) (doses ≧100 mg QW combined, aGVHD positive strata (1 out of 7)): 14.3%
- failure rate, exploratory endpoint (pooled 100 mg QW, 200 mg BIW, 100 mg BIW, CMV negative stratum (8 of 86)): 9%

From patent publication US20140303092A1 (CHIMERIX, INC., priority 2011, published 2014)
